Results taken from USRE47589E1, “Phosphoramidate compounds and methods of use” (NuCana plc, priority 2003, dated 2019).
“Also recorded” adds a separate entry of the source.

Columns and labels:
[1] = test system: human colon cancer cell line (HT115); experiment: MTT cytotoxicity assay, colon cancer cell line; format: cell-based; details: for EC50: Homo sapiens, HT115, read-out: EC50/μM Colon HT115, MTT assay, compounds added to cells over 1 to 3 days; for concentration found to be active in vitro, colon cell line: same colon cell line (HT115)
Procedure: (§1) The compounds include those whose preparations are described above and compounds made by preparative methods corresponding to the methods described above.
(§2) Compounds were diluted over a range of concentrations and added to cells over 1 to 3 days. The cytotoxity was determined using a MTT assay at the end of each experiment.

colon HT115 xenograft = experiment: Mouse xenograft of human cancer, colon tumour volume; format: in vivo; details: for reducing colon tumour volume relative to control: daily dosing, CPF31 at 5 and 10 μM (3 and 6 μg/ml), gemcitabine at highest non-toxic concentration
Procedure: (§3) Mice were dosed daily at a range of concentrations (0.01-10 μM) and tumour volume assessed versus control.

[2] = in vivo, 13 day
Procedure: as §3
(§4) Kaplan-Meier statistics were computed regarding incident-free survival.

[3] = test system: human breast cancer cell line (MDA MB 231); experiment: MTT cytotoxicity assay, breast cancer cell line; format: cell-based; details: Homo sapiens, MDA-MB-231, read-out: EC50/μM Breast MDA MB231
Procedure: as §1, §2

prostrate PC3 xenograft = experiment: Mouse xenograft of human cancer, prostate tumour volume; format: in vivo; details: daily dosing, CPF31 at 5 and 10 μM (3 and 6 μg/ml), gemcitabine at highest non-toxic concentration
Procedure: as §3

[4] = test system: human prostate cancer cell line (PC-3); experiment: MTT cytotoxicity assay, prostate cancer cell line; format: cell-based; details: Homo sapiens, read-out: EC50/μM Prostate PC-3
Procedure: as §1, §2

[5] = Toxicity in mouse xenograft model (body mass loss, incident-free survival)
Procedure: as §3, §4

Row | SMILES | EC50 [1] [µM] | concentration found to be active in vitro, colon cell line [1] [µM] | reducing colon tumour volume relative to control (colon HT115 xenograft) | toxic concentration in mouse xenograft (FIG. 1) [2] | EC50 [3] [µM] | reducing prostate tumour volume relative to control (prostrate PC3 xenograft) | EC50 [4] [µM] | animals showing serious toxicity (10% body mass loss), day 10 ([5]; 5 and 10 μM groups combined, day 10) [animals] | animals showing serious toxicity (10% body mass loss), day 11, collectively ([5]; 5 and 10 μM groups combined, day 11) [animals] | animals showing serious toxicity (10% body mass loss), day 13 ([5]; 5 and 10 μM groups combined, day 13) [animals] | toxicity compared with gemcitabine (Gemzar, GMZ) ([5]; mouse xenograft, weight loss based, Kaplan-Meier / Cox analysis, listed as CPF31) | activity in reducing colon tumour volume in vivo at 5 μM (FIG. 4) (colon HT115 xenograft; 5 μM, day 24, versus Gemzar)
1 | Nc1ccn([C@@H]2O[C@H](CO)[C@@H](O)C2(F)F)c(=O)n1 [Example G, gemcitabine, reference compound] | 606 | 600 | not effective | above 1 μM | 2.8 | not effective | 3.12 |  |  |  |  | 
2 | C[C@H](NP(=O)(OC[C@H]1O[C@@H](n2ccc(N)nc2=O)C(F)(F)C1O)Oc1ccccc1)C(=O)OCc1ccccc1 (stereo partly drawn) [Example 31, Gemcitabine-[phenyl-(benzoxy-L-alaninyl)]-phosphate] | 5.7 | 5 | significantly effective |  | 42.6 | significantly effective | 0.22 | 3 | 1 | 1 | significantly less toxic; also recorded: substantially lower toxicity; also recorded: far less toxic | greater activity
